From patent publication US8680159B2, “Bradykinin 1 receptor modulating compounds” (Gruenenthal GmbH, priority 2010, dated 2014)

Tests used:
[1] = target: T1, B1R receptor of the rat (CHO K1 cells stably transfected with the B1R gene of the rat) (Rattus norvegicus, UniProt P97583); test: Functional study on the bradykinin receptor 1 (B1R), Ca2+ fluorescence (Fluo-4) FLIPR/Novostar assay, rB1R cells; assay type: cell-based; details: CHO-K1, 10 μM, read-out: % inhibition (rat B1R) at 10 μM
T1 construct: expressed in transfected cells; host or cells: CHO K1 cells (Chinese hamster ovary), stably transfected
T1 sequence (P97583 1-337): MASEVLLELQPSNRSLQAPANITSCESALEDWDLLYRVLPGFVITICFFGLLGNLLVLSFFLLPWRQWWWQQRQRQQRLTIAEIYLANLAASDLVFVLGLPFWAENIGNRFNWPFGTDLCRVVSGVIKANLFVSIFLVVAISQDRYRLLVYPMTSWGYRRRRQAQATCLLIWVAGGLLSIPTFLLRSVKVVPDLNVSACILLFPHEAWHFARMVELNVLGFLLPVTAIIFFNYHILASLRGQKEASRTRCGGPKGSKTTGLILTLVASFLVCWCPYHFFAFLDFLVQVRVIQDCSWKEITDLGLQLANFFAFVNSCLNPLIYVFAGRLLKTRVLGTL
Summary of the method: (§1)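 Ca2+ influx (Fluo-4, peak fluorescence, λex 488/λem 540 nm) was measured in CHO K1 lines expressing rat or human B1R. After a 10 μM test-compound pre-addition scoring % activation, cells received EC80 agonist: Des-Arg9-bradykinin for rat, Lys-Des-Arg9-bradykinin for human. Antagonism was expressed as % of maximum inhibition, with IC50 from varied concentrations.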

[2] = target: T2, human B1R receptor (CHO K1 cells stably transfected with the human B1R gene) (Homo sapiens, UniProt P46663); test: Functional study on the bradykinin receptor 1 (B1R), Ca2+ fluorescence (Fluo-4) FLIPR/Novostar assay, hB1R cells; assay type: cell-based; details: CHO-K1, read-out: % inhibition (human B1R) at 10 μM
T2 construct: expressed in transfected cells; host or cells: CHO K1 cells (Chinese hamster ovary), stably transfected
T2 sequence (P46663 1-353): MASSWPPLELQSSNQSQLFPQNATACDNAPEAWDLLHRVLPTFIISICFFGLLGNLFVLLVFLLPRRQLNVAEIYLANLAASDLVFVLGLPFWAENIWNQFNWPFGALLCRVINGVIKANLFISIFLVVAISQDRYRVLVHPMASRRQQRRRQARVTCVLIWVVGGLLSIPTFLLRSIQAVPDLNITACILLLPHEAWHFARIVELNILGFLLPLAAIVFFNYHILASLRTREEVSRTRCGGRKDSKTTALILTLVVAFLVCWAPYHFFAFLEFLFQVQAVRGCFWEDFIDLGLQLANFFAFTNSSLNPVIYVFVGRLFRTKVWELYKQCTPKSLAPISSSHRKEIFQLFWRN
Summary of the method: as §1

| Structure (SMILES) | inhibition at 10 µM [1] [%] | inhibition at 10 µM [2] [%] |
| --- | --- | --- |
| CC(C)N(C(=O)c1ccc2c(c1)[C@H](NC(=O)c1ccccc1Cl)CC2)C1CCN(c2ccncc2)CC1 [Example H-178, (3R)-3-[(2-Chloro-benzoyl)amino]-N-isopropyl-N-(1-pyridin-4-yl-piperidin-4-yl)-2,3-dihydro-1H-indene-5-carboxylic acid amide] | 101 | 100 |
| Cc1cc(N2CCC(N(C)C(=O)c3ccc4c(c3)[C@H](NC(=O)C(C)(C)F)CC4)CC2)ccn1 [Example H-179, (3R)-3-[(2-Fluoro-2-methyl-propanoyl)amino]-N-methyl-N-[1-(2-methyl-pyridin-4-yl)-piperidin-4-yl]-2,3-dihydro-1H-indene-5-carboxylic acid amide] | 100 | 94 |
| CN(C(=O)c1ccc2c(c1)[C@H](NC(=O)c1ccccc1Cl)CC2)C1CCN(c2nccn2C)CC1 [Example H-180, (3R)-3-[(2-Chloro-benzoyl)amino]-N-methyl-N-[1-(1-methyl-1H-imidazol-2-yl)-piperidin-4-yl]-2,3-dihydro-1H-indene-5-carboxylic acid amide] | 104 | 89 |
| Cc1cncc(N2CCC(N(C)C(=O)c3ccc4c(c3)[C@H](NC(=O)c3ccccc3Cl)CC4)CC2)n1 [Example H-181, (3R)-3-[(2-Chloro-benzoyl)amino]-N-methyl-N-[1-(6-methyl-pyrazin-2-yl)-piperidin-4-yl]-2,3-dihydro-1H-indene-5-carboxylic acid amide] | 100 | 77 |
| CN(C(=O)c1ccc2c(c1)[C@H](NC(=O)c1ccccc1Cl)CC2)C1CCN(c2ccncc2)C(=O)C1 (stereo partly drawn) [Example H-182, (3R)-3-[(2-Chloro-benzoyl)amino]-N-methyl-N-(2-oxo-1-pyridin-4-yl-piperidin-4-yl)-2,3-dihydro-1H-indene-5-carboxylic acid amide] | 59 | 15 |
| CN(C(=O)c1ccc2c(c1)[C@H](NC(=O)c1ccccc1Cl)CC2)C1CCN(c2ccncc2C(F)(F)F)CC1 [Example H-183, (3R)-3-[(2-Chloro-benzoyl)amino]-N-methyl-N-[1-[3-(trifluoromethyl)-pyridin-4-yl]-piperidin-4-yl]-2,3-dihydro-1H-indene-5-carboxylic acid amide] | 101 | 93 |
| CN(C)c1cc(C2CCC(N(C)C(=O)c3ccc4c(c3)[C@H](NC(=O)c3ccccc3Cl)CC4)CC2)ccn1 (stereo partly drawn) [Example H-184, (3R)-3-[(2-Chloro-benzoyl)amino]-N-[4-(2-dimethylamino-pyridin-4-yl)-cyclohexyl]-N-methyl-2,3-dihydro-1H-indene-5-carboxylic acid amide] | 105 | 72 |
| CN(C)c1cc(N2CCC(N(C)C(=O)c3ccc4c(c3)[C@H](N(C)C(=O)CCC3CCCC3)CC4)CC2)ccn1 [Example H-185, (3R)-3-(3-Cyclopentyl-propanoyl-methyl-amino)-N-[1-(2-dimethylamino-pyridin-4-yl)-piperidin-4-yl]-N-methyl-2,3-dihydro-1H-indene-5-carboxylic acid amide] | 105 | 100 |
| CN(C)c1nccc(N2CCC(N(C)C(=O)c3ccc4c(c3)[C@H](N(C)C(=O)CCC3CCCC3)CC4)CC2)n1 [Example H-186, (3R)-3-(3-Cyclopentyl-propanoyl-methyl-amino)-N-[1-(2-dimethylamino-pyrimidin-4-yl)-piperidin-4-yl]-N-methyl-2,3-dihydro-1H-indene-5-carboxylic acid amide] | 103 | 99 |
